Test system: NHEKs
Test: Anti-oxidant activity: ROS production (DCFH probe) under TBP stress
Assay type: cell-based, human
Settings: TBP 5 mM; positive control at 200 μM, 24 h pre-incubation
Procedure: NHEKs were seeded in a black plate with a glass bottom at 20′000 cells per well pre-coated with type I collagen. Cells were incubated at 37° C. with 5% CO2 for 24 h. On the next day, the cells were incubated for 24 h with the patchouli extracts and some of the fractions thereof described in examples 1 and 2 above, each at 0.5% (v/v), or Resveratrol (positive control) at 200 μM. After this pre-incubation, the cells were incubated with dichloro-dihydro-fluorescein (DCFH) probe at 50 μM for 30-45 min. The cells were then rinsed two times with PBS and incubated with PBS alone or with PBS containing 5 mM tert-butyl peroxide (TBP) to induce an oxidative stress. Fluorescence reading was performed every 10 min for 1 h, exciting at 488 nm and emitting at 525 nm.

**Q.** With `Oc1ccc(C=Cc2cc(O)cc(O)c2)cc1` [Resveratrol] as the compound, how does the “ROS Production [% of TBP, untreated] Average” value read?
**A.** Its value is 18 % of TBP, untreated.

Source: US20240000700A1, “PLANT EXTRACTING METHOD” (GIVAUDAN SA, priority 2020, published 2024)
